Laboratory results taken from ChEMBL document CHEMBL3045728, “Synthesis, physico-chemical properties, and antimicrobial evaluation of a new series of iron(III) hexadentate chelators” (Med Chem Res, 2013).
In brackets after ≈: the same amount, converted by molar mass.

Assays:
[1] = Iron chelating activity of the compound assessed as stability constant of Fe3+-compound complex; format: physicochemical
Bacillus subtilis = test: Antimicrobial activity against Bacillus subtilis assessed as growth inhibition incubated for 2 hr measured after 24 hr by turbidity based assay; format: functional
Bacillus cereus = test: Antimicrobial activity against Bacillus cereus assessed as growth inhibition incubated for 2 hr measured after 24 hr by turbidity based assay; format: functional
Staphylococcus aureus = test: Antimicrobial activity against Staphylococcus aureus assessed as growth inhibition incubated for 2 hr measured after 24 hr by turbidity based assay; format: functional
Escherichia coli = test: Antimicrobial activity against Escherichia coli assessed as growth inhibition incubated for 2 hr measured after 24 hr by turbidity based assay; format: functional
[2] = Iron chelating activity of the compound assessed as stability constant of Fe3+-compound complex after 5 min by spectrophotometric titration analysis; format: physicochemical
Pseudomonas aeruginosa = test: Antimicrobial activity against Pseudomonas aeruginosa assessed as growth inhibition incubated for 2 hr measured after 24 hr by turbidity based assay; format: functional

SMILES	log K [1]	MIC (Bacillus subtilis) [µg/mL]	MIC (Bacillus cereus) [µg/mL]	MIC (Staphylococcus aureus) [µg/mL]	MIC (Escherichia coli) [µg/mL]	log K [2]	MIC (Pseudomonas aeruginosa) [µg/mL]
O=C(O)C(NCCNC(C(=O)O)c1ccccc1O)c1ccccc1O (centres undefined)	34						
O=C(NCCN(CCNC(=O)c1c(O)c(=O)ccn1CCOCCO)CCNC(=O)c1c(O)c(=O)ccn1CCOCCO)c1c(O)c(=O)ccn1CCOCCO		40 (≈ 48.7 µM)	40 (≈ 48.7 µM)	40 (≈ 48.7 µM)	40 (≈ 48.7 µM)	32	40 (≈ 48.7 µM)
COCCn1ccc(=O)c(O)c1C(=O)NCCN(CCNC(=O)c1c(O)c(=O)ccn1CCOC)CCNC(=O)c1c(O)c(=O)ccn1CCOC		40 (≈ 54.7 µM)	80 (≈ 109 µM)	80 (≈ 109 µM)	16 (≈ 21.9 µM)	32.3	16 (≈ 21.9 µM)
CCCCCCn1ccc(=O)c(O)c1C(=O)NCCN(CCNC(=O)c1c(O)c(=O)ccn1CCCCCC)CCNC(=O)c1c(O)c(=O)ccn1CCCCCC		40 (≈ 49.4 µM)	40 (≈ 49.4 µM)	40 (≈ 49.4 µM)	80 (≈ 98.8 µM)		40 (≈ 49.4 µM)
CCCCn1ccc(=O)c(O)c1C(=O)NCCN(CCNC(=O)c1c(O)c(=O)ccn1CCCC)CCNC(=O)c1c(O)c(=O)ccn1CCCC		80 (≈ 110 µM)	80 (≈ 110 µM)	80 (≈ 110 µM)	40 (≈ 55.1 µM)		40 (≈ 55.1 µM)
O=C(O)CN(CCN(CC(=O)O)Cc1ccccc1O)Cc1ccccc1O	40						
CC(=O)N(O)CCCCCNC(=O)CCC(=O)N(O)CCCCCNC(=O)CCC(=O)N(O)CCCCCN [DEFEROXAMINE]	30.4						
O=C(O)CN(CCN(CC(=O)O)CC(=O)O)CCN(CC(=O)O)CC(=O)O [PENTETIC ACID]	28.6	80 (≈ 203 µM)	80 (≈ 203 µM)	40 (≈ 102 µM)	80 (≈ 203 µM)		80 (≈ 203 µM)

More lines, now with the values ahead:

log K [1]	MIC (Bacillus subtilis) [µg/mL]	MIC (Bacillus cereus) [µg/mL]	MIC (Staphylococcus aureus) [µg/mL]	MIC (Escherichia coli) [µg/mL]	log K [2]	MIC (Pseudomonas aeruginosa) [µg/mL]	SMILES
	40 (≈ 71.7 µM)	40 (≈ 71.7 µM)	40 (≈ 71.7 µM)	80 (≈ 143 µM)	30.7	24 (≈ 43 µM)	O=C(NCCN(CCNC(=O)c1[nH]ccc(=O)c1O)CCNC(=O)c1[nH]ccc(=O)c1O)c1[nH]ccc(=O)c1O
	40 (≈ 58 µM)	40 (≈ 58 µM)	80 (≈ 116 µM)	40 (≈ 58 µM)		40 (≈ 58 µM)	O=C(NCCN(CCNC(=O)c1c(O)c(=O)ccn1CCO)CCNC(=O)c1c(O)c(=O)ccn1CCO)c1c(O)c(=O)ccn1CCO
	40 (≈ 62.3 µM)	40 (≈ 62.3 µM)	40 (≈ 62.3 µM)	24 (≈ 37.4 µM)	32.6	16 (≈ 24.9 µM)	CCn1ccc(=O)c(O)c1C(=O)NCCN(CCNC(=O)c1c(O)c(=O)ccn1CC)CCNC(=O)c1c(O)c(=O)ccn1CC
	40 (≈ 66.7 µM)	40 (≈ 66.7 µM)	40 (≈ 66.7 µM)	24 (≈ 40 µM)	32.1	24 (≈ 40 µM)	Cn1ccc(=O)c(O)c1C(=O)NCCN(CCNC(=O)c1c(O)c(=O)ccn1C)CCNC(=O)c1c(O)c(=O)ccn1C
